The record followed here is PubChem BioAssay AID1996.

In brackets after ≈: the same amount, converted by molar mass.

The conditions of this data set: buffer; pH 7.4; 200.0 µM.
Take `CCOC(=O)c1csc(NC(=O)c2cccs2)n1`: the kinetic solubility amounted to 28.9 µg/mL (≈ 102 µM).

`c1ccc2c(c1)nc(N1CCOCC1)c1ccccc12` displayed a kinetic solubility of 14.9 µg/mL (≈ 56.4 µM). The value for `O=C1CNC(=S)N1CCc1ccccc1Cl` was greater than 38.2 µg/mL; that for `O=C1c2ccccc2C(=O)N1CCOc1ccc(F)cc1` was 4 µg/mL (≈ 14 µM). The figure for `CC(=O)Nc1ccc(NC(=O)Cc2ccc(-c3ccccc3)cc2)cc1` is less than 0.4 µg/mL. The value for `CN(C)C(=O)N1CCNCC1.Cl` was greater than 29.1 µg/mL.

`CSc1nc(-c2ccccc2)nc(NC(=O)C(C)C)c1C(C)=O`: the kinetic solubility is 0.8 µg/mL (≈ 2.43 µM).

In turn, `CN(CC(=O)NCCc1ccccc1)Cc1ccco1` returned a kinetic solubility greater than 40.9 µg/mL. The figure for `CCOc1ccc(N=C2NC(=O)CS2)cc1` is greater than 35.4 µg/mL. The figure for `CNCCCN1c2ccccc2CCc2ccccc21.Cl` is greater than 45.4 µg/mL; for `CSc1nsc(SCC(=O)Nc2ccccc2F)n1` it is 38 µg/mL (≈ 120 µM); for `CCCNC(=O)c1ccc(COc2ccc(Cl)cc2)o1` it is 33 µg/mL (≈ 112 µM). The figure for `COC(=O)c1cc(S(=O)(=O)NC2CCCCC2)cn1C` is 42 µg/mL (≈ 140 µM); for `COc1ccc(CNC(=O)COC(=O)c2ccc(S(=O)(=O)N3CCOCC3)cc2)cc1` it is 9.2 µg/mL (≈ 20.5 µM). Compound `O=C(Cc1ccccc1F)OCN1C(=O)c2ccccc2C1=O` showed a kinetic solubility of 47 µg/mL (≈ 150 µM). The value for `CCc1cccc(NS(=O)(=O)c2csc(C(N)=O)c2)c1` was greater than 46.6 µg/mL; that for `Cc1c(C)[n+](=O)c2c(n1[O-])C(Br)CCC2Br` (stereo not given) was greater than 52.8 µg/mL. The value for `O=C(O)C1CCN(C(=O)c2ccc3c(c2)OCO3)CC1` was 36.2 µg/mL (≈ 131 µM); that for `CC1CCc2sc(C(=O)OCC(=O)NC(C)C)cc2C1` (stereo not given) was 1.2 µg/mL (≈ 4.06 µM); that for `CCNC(=O)c1cnn(-c2ccccc2)c1-c1ccccc1` was greater than 43.7 µg/mL. Turning to `Cc1ccc2[nH]cc(S(=O)(=O)c3ccc(C)c(C)c3)c(=O)c2c1`, the kinetic solubility was less than 0.7 µg/mL. The value for `CCc1cccc(C)c1NC(=O)CN1C(=O)NC(C)(CCC(C)C)C1=O` (stereo not given) was greater than 53.9 µg/mL; that for `O=C(COc1ccc(Cl)cc1)N1CCCCCCC1` was 31.8 µg/mL (≈ 113 µM). As to `O=C(Nc1ccccc1)OCc1cnc(Cl)s1`, the kinetic solubility is 36.7 µg/mL (≈ 137 µM). `Cc1cc(C)cc(C(=O)NCC(=O)OCC(=O)NC2CCCc3ccccc32)c1` (stereo not given) displayed a solubility (kinetic) of 8.4 µg/mL (≈ 21.3 µM). The figure for `CN(CC(=O)Nc1ccc(Cl)cc1)C(=O)CCc1ccccc1` is 5.2 µg/mL (≈ 15.7 µM); for `N#C/C(=C\c1ccccc1O)C(=O)Nc1ccccn1` it is 32.9 µg/mL (≈ 124 µM). The figure for `CCOC(=O)C1=C(C)NC(=O)NC1c1c(OC)ccc2ccccc12` (stereo not given) is 0.7 µg/mL (≈ 2.06 µM). For `CC1CC(C)CN(C(=O)COC(=O)c2ccc3c(c2)OCCO3)C1` (stereo not given), the solubility (kinetic) worked out at 49.5 µg/mL (≈ 148 µM).

For `Cc1ccc(NC(=O)CNC(=O)c2ccc(C)s2)nc1`, the kinetic solubility is greater than 43.4 µg/mL.

`S=C(/N=c1/sccn1Cc1ccccc1)NC1CC1` had a kinetic solubility of 5.4 µg/mL (≈ 18.7 µM). For `Cn1c(=O)c2c(O)c([N+](=O)[O-])c(=O)n(C)c2n(C)c1=O`, the kinetic solubility was greater than 42.3 µg/mL.

As for `O=C(Cc1cccc2ccccc12)Nc1cc(C(=O)O)cc(C(=O)O)c1`, the solubility (kinetic) was greater than 52.4 µg/mL. The value for `NC(=O)c1cc(S(=O)(=O)NCCc2ccccc2)cs1` was 40.3 µg/mL (≈ 130 µM); that for `CCOC(=O)c1sc(N)c(C#N)c1COC(=O)C1=COCCO1` was 11.6 µg/mL (≈ 34.3 µM). In the case of `COc1ccc(OCC(O)CN2C(=O)c3ccccc3C2=O)cc1` (stereo not given), the solubility (kinetic) was greater than 49.1 µg/mL. The compound `CCc1nc2ccccc2c(C(=O)NCc2ccc(OC)cc2)c1C` had a solubility (kinetic) of 47.9 µg/mL (≈ 143 µM).

The compound `Cc1nc2c(Cl)cccc2c2c1CC(CBr)O2` (stereo not given) came in with a kinetic solubility of 12.5 µg/mL (≈ 40 µM). As to `Cn1cccc1CNC(=S)Nc1cc(F)cc(F)c1`, the solubility (kinetic) was greater than 42.2 µg/mL. The figure for `Cc1ccc(CN(C)CC(=O)Nc2ccc3c(c2)CCC3)cc1` is 5.4 µg/mL (≈ 17.5 µM); for `Cc1cc(C)c(S(=O)(=O)Nc2ccccn2)c(C)c1` it is 4.7 µg/mL (≈ 17 µM). The value for `Cc1ccc(Cl)c2sc(NC(=O)C3=COCCO3)nc12` was 1.1 µg/mL (≈ 3.54 µM). The value for `CCN1CCN(c2oc(-c3ccco3)nc2C#N)CC1` was 35.9 µg/mL (≈ 132 µM). For `CC(C)OCCCNC(=O)C1CCN(S(=O)(=O)N2CCCC2)CC1`, the solubility (kinetic) was greater than 54.2 µg/mL.

In turn, `Cc1ccc(C(=O)C[n+]2cccc(C(N)=O)c2)cc1.[Br-]` gave a kinetic solubility greater than 50.3 µg/mL. The value for `Cc1cccc(C(=O)Nc2cccc(C(=O)Nc3cc(C)ccn3)c2)c1` was 0.9 µg/mL (≈ 2.61 µM). `CCC(=O)Nc1ccc(NC(=O)CCc2ccccc2)cn1`: the solubility (kinetic) turned out to be 44.5 µg/mL (≈ 150 µM). On to `O=c1[nH]c2ccccc2nc1Cc1ccc(Cl)cc1`, for which the solubility (kinetic) came to 0.9 µg/mL (≈ 3.32 µM).

Consider `C=CCn1cc(/C=C2/NC(=O)NC2=O)c2ccccc21`, for which the solubility (kinetic) was 1 µg/mL (≈ 3.74 µM). The value for `Fc1ccc(OCCOCCN2CCNCC2)cc1.O=C(O)C(=O)O` was 51 µg/mL.

On to `O=C(O)CCCc1c(-[n+]2ccccc2)[nH]c2ccccc12.[Cl-]`, for which the solubility (kinetic) was greater than 47.5 µg/mL. The figure for `Cc1cc2nc(-c3ccc[nH]c3=O)n(Cc3cccc(F)c3)c2cc1C` is 1.3 µg/mL (≈ 3.74 µM); for `O=C(COC(=O)c1ccccc1Br)Nc1ccc(F)cc1` it is 28.7 µg/mL (≈ 81.5 µM).

Turning to `CC1CN(CC(=O)NCc2ccc(F)cc2)CC(C)O1` (stereo not given), the kinetic solubility is greater than 42.1 µg/mL.

In turn, `CSc1ccccc1C(=O)Nc1cc([N+](=O)[O-])ccc1C` returned a solubility (kinetic) of 2 µg/mL (≈ 6.61 µM). The compound `O=C(COC(=O)/C=C/c1cccc(F)c1)NC(=O)NCc1ccccc1` showed a solubility (kinetic) of 2.8 µg/mL (≈ 7.86 µM). The solubility kinetic values of the last two compounds are within 1.5-fold of each other. The figure for `CC(C)(C)c1ccc(S(=O)(=O)NCC2CCCO2)cc1` (stereo not given) is 34.9 µg/mL (≈ 117 µM); for `N#Cc1ccsc1NC(=O)CCS(=O)(=O)c1ccccc1` it is 41.7 µg/mL (≈ 130 µM); for `Cc1cc(C(=O)OCC(=O)Nc2nccs2)c2ccccc2n1` it is 6.8 µg/mL (≈ 20.8 µM). The value for `O=c1[nH]n2cc(-n3cc([N+](=O)[O-])cn3)cnc2c1Br` was greater than 48.8 µg/mL; that for `Cc1ccccc1NC(=O)/C(C#N)=C/c1ccc[nH]1` was 2.9 µg/mL (≈ 11.5 µM).

For `Cc1ccc(OCC(O)CNCc2ccccc2)cc1C` (stereo not given), the kinetic solubility came to 36.2 µg/mL (≈ 127 µM). This solubility kinetic is about 12-fold higher than that of the compound before. With `COC(=O)c1cn(S(=O)(=O)c2ccccc2)c2ccccc12`, the kinetic solubility was 2 µg/mL (≈ 6.34 µM). Regarding `COc1ccccc1NS(=O)(=O)c1ccc(C(=O)N2CCN(c3ccccn3)CC2)cc1`, the solubility (kinetic) was found to be 53.9 µg/mL (≈ 119 µM). The value for `O=C(NC1CCN(Cc2ccccc2)CC1)c1ccccc1Cl` was 35.7 µg/mL (≈ 109 µM); that for `Cc1ccc(C)c(NC(=O)CCN2CCN(C)CC2)c1` was greater than 41.3 µg/mL; that for `C[C@H](NC(=O)c1ccccc1)C(=O)N1CCN(Cc2ccc3c(c2)OCO3)CC1` was greater than 59.3 µg/mL. The value for `Cc1c(OCC(N)=O)ccc2c(-c3ccccc3)cc(=O)oc12` was 0.9 µg/mL (≈ 2.91 µM).

The compound `CCC(Oc1ccccc1F)C(=O)NCCN1CCOCC1` (stereo not given) had a solubility (kinetic) of 44.3 µg/mL (≈ 143 µM). Compound `Cc1cc(Cl)cc(C)c1OCCn1ccnc1.Cl` returned a solubility (kinetic) greater than 43.1 µg/mL. The figure for `CCn1c(C)nc2cc(C(=O)NNC(=O)CN(C)S(=O)(=O)c3ccc(NC(C)=O)cc3)ccc21` is greater than 73 µg/mL; for `COc1cccc(NC(=S)N2c3ccccc3CC2C)c1` (stereo not given) it is 20.3 µg/mL (≈ 68 µM); for `CCC(CC)C(=O)Nc1ccc(C(=O)Nc2cc(C)on2)cc1` it is 5.7 µg/mL (≈ 18.1 µM). The figure for `O=c1[nH]cnc2cc(-c3ccc(Br)cc3)sc12` is 0.6 µg/mL (≈ 1.95 µM). The value for `C=CCOn1c(=O)c(-c2ccc(Br)cc2)[n+]([O-])c2ccccc21` was 0.4 µg/mL (≈ 1.07 µM); that for `Cn1c(=O)c2ccccc2n(CC(=O)NC2CCCCC2)c1=O` was 8 µg/mL (≈ 25.4 µM); that for `Cc1ccnc(NC(=O)CCC(=O)c2cc(C)sc2C)c1` was 3.7 µg/mL (≈ 12.2 µM).

`O=C(O)C1Cc2ccccc2CN1C(=O)CCl` (stereo not given): the solubility (kinetic) is greater than 38.1 µg/mL.

`O=C(Nc1ccc(CN2CCOCC2)cc1)c1ccco1` came in with a kinetic solubility greater than 42.9 µg/mL.

Compound `CCOc1cc(C(=O)NC2CCCCCCC2)cc(OCC)c1OCC` yielded a kinetic solubility of 2.3 µg/mL (≈ 6.33 µM). The compound `O=C(COc1ccccc1F)Nc1nc(-c2ccccn2)cs1` had a kinetic solubility of 8.8 µg/mL (≈ 26.7 µM). Against the preceding compound, the solubility kinetic is about 3.8-fold higher.

The compound `Cc1cccc(C(=O)OCC(=O)NC(C)C2CC3CCC2C3)c1O` (stereo not given) displayed a solubility (kinetic) of 4.1 µg/mL (≈ 12.4 µM). The compound `CC1CN(C(=S)NC(=O)c2ccccc2)CC(C)O1` (stereo not given) gave a solubility (kinetic) greater than 41.8 µg/mL. `COc1ccccc1/C=C/c1ccc2cccc(O)c2n1` came in with a kinetic solubility of 11.2 µg/mL (≈ 40.4 µM).

Compound `COc1ccc(OCC(=O)Nc2ccc(N3CCC(C)CC3)cc2)cc1` registered a kinetic solubility of less than 0.4 µg/mL. The value for `Cl.O=C(O)C1CCN(Cc2cccnc2)CC1` was greater than 38.5 µg/mL; that for `O=C(O)c1cccc2c1C(=O)N(Cc1ccccc1)C2` was greater than 40.1 µg/mL; that for `COc1ccccc1CNC1CCN(Cc2ccccc2)CC1` was greater than 46.6 µg/mL. As for `CCN(CC)S(=O)(=O)c1ccc(NCc2ccccn2)nc1`, the kinetic solubility was greater than 48.1 µg/mL. The figure for `Cc1ccc2nc(SC(C)C(=O)N3CCOCC3)[nH]c2c1` (stereo not given) is 38.3 µg/mL (≈ 125 µM).

In turn, `CCS(=O)(=O)c1ccc2c(c1)NC(=O)C(CCO)O2` (stereo not given) came in with a kinetic solubility of 40.4 µg/mL (≈ 142 µM).

For `O=C(Cn1c(NCCO)nc2ccccc21)NCC1CCCO1` (stereo not given), the kinetic solubility is greater than 47.8 µg/mL. The value for `COc1ccc(C(=O)OCC(=O)c2ccc3[nH]c(=O)[nH]c3c2)c(OC)c1OC` was 20.3 µg/mL (≈ 52.5 µM); that for `Cc1ccc2c(c1)sc(C)[n+]2CCCS(=O)(=O)[O-]` was greater than 42.8 µg/mL; that for `CCCC1Cc2c(sc(N)c2C#N)CO1` (stereo not given) was greater than 33.3 µg/mL. On to `CC(Sc1ccccc1)C(=O)NCCc1ccccc1` (stereo not given), for which the kinetic solubility was greater than 42.8 µg/mL. In the case of `CCCc1cc(C(=O)Nc2cccc(Cl)c2C)no1`, the kinetic solubility came to 16.4 µg/mL (≈ 58.8 µM). The figure for `CCCCN(C)c1c(N2CCC(C(=O)OCC)CC2)c(=O)c1=O` is greater than 48.4 µg/mL; for `Cc1ccc(C)c(N2CC(C(=O)O)CC2=O)c1` (stereo not given) it is greater than 35 µg/mL. The figure for `Cc1cccc(NC(=S)N2CCN(c3ccccn3)CC2)c1` is 6.7 µg/mL (≈ 21.4 µM). The figure for `CCc1cc(=O)[nH]c(SCCc2ccccc2)n1` is greater than 39.1 µg/mL; for `Cc1cc(C)c2c(CC(=O)NN(C)C)coc2c1` it is greater than 36.9 µg/mL; for `Cc1ccc(-c2onc3ccc(C(=O)/C=C/N(C)C)cc23)cc1` it is 2.3 µg/mL (≈ 7.51 µM). `COc1ccc(/C=C2/C(=O)ON=C2C)cc1Br` showed a kinetic solubility of 14 µg/mL (≈ 47.3 µM). On to `CCOC(=O)Cn1c(=O)oc2ccc(C)cc21`, for which the kinetic solubility was greater than 35.3 µg/mL.

The solubility (kinetic) is solubility judged after dilution from a stock solution rather than from solid.
